# Test results taken from patent US20130245061A1, “PHARMACEUTICAL COMPOSITIONS” (NOVARTIS AG, priority 2010, published 2013).
# Columns and labels:
# [1] = pH-dependent solubility of the therapeutic compound; assay type: physicochemical; details: pH higher than 3
# [2] = permeability of the therapeutic compound; assay type: in vitro ADME
# [3] = 2-Step Dissolution Test (pH 2 then pH 6.8); assay type: physicochemical; details: pH 6.8, second step; FIG. 2
# Protocol: Capsules containing either Compound A alone, Formulation Variant 1 or Variant 2 are placed in 900 mL of pH 2 HCl and then stirred in a USP Apparatus II rotating at 50 rpm for 10 to 100 minutes (with fast stir from about minute 60 to minute 90). At approximately the 100 minute time point, this medium is adjusted to pH 6.8 and to a volume of 1000 ml and then stirred in a USP Apparatus II rotating at 50 rpm. Samples are filtered using a 100 μm Varian full flow filter and analyzed by UV.
# Capsules containing either Compound A alone, Formulation Variants 1 or 2 are separately evaluated using a 2-Step Dissolution Test. This analysis compared the dissolution profile of capsules containing 68.5 mg per unit of 2-methyl-2-[4-(3-methyl-2-oxo-8-quinolin-3-yl-2,3-dihydro-imidazo[4,5-c]quinolin-1-yl)-phenyl]-propionitrile monotosylate salt (which is equivalent to 50 mg of the free base of 2-methyl-2-[4-(3-methyl-2-oxo-8-quinolin-3-yl-2,3-dihydro-imidazo[4,5-c]quinolin-1-yl)-phenyl]-propionitrile) at pH 2 and pH 6.8.
# For this analysis, capsules containing either Compound A alone, Formulation Variant 1 or Variant 2 are placed in 900 mL of pH 2 HCl and then stirred in a USP Apparatus II rotating at 50 rpm for 10-100 minutes (with fast stir from about minute 60 to minute 90). […] Samples are filtered using a 100 μm Varian Full Flow filter and analyzed by HPLC.
smiles,measurement,setting,value
"Cn1c(=O)n(-c2ccc(C(C)(C)C#N)cc2)c2c3cc(-c4cnc5ccccc5c4)ccc3ncc21 [Compound A, 2-methyl-2-[4-(3-methyl-2-oxo-8-quinolin-3-yl-2,3-dihydro-imidazo[4,5-c]quinolin-1-yl)-phenyl]-propionitrile]",solubility,[1],approximately 0%
same,permeability,[2],low
same,drug release,[3],approximately 0%
